Assay [1] concerns the target T1, Cyclin-G-associated kinase (Homo sapiens) (UniProt O14976).
T1 sequence (whole entry): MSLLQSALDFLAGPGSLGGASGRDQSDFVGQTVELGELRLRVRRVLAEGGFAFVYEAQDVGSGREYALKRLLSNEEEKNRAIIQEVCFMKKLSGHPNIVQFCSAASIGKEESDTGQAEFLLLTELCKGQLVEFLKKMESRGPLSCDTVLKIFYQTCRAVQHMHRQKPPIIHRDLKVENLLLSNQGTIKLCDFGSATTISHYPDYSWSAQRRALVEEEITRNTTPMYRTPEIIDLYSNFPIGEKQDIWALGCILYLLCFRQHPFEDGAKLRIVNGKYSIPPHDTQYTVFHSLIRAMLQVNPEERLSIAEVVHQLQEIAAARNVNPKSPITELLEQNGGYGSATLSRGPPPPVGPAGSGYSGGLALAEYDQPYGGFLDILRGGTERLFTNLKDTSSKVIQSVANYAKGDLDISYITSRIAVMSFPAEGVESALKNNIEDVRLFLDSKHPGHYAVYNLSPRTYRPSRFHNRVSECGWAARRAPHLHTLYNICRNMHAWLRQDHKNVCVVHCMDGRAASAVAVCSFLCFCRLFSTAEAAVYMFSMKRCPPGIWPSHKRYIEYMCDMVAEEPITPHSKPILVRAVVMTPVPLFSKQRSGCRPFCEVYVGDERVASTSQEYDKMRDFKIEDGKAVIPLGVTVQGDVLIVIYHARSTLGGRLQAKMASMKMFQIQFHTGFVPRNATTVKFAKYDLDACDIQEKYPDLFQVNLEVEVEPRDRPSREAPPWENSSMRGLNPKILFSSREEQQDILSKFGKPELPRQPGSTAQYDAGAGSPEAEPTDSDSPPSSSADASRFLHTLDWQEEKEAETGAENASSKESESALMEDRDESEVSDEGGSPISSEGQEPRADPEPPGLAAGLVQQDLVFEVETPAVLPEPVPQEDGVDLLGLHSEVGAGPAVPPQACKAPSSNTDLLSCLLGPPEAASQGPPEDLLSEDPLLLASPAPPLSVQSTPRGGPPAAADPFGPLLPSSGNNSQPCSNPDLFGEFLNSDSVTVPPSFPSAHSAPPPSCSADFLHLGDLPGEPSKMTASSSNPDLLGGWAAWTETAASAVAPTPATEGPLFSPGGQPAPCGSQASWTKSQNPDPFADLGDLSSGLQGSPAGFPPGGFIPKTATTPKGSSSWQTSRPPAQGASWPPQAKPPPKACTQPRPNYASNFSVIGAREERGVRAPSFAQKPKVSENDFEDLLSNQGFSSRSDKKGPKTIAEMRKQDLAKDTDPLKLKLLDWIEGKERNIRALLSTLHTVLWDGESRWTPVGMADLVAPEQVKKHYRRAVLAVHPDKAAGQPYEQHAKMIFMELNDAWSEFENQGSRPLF
Briefly: Selectivity interaction (Ambit KINOMEscan and KiNATiv profiling in Jurkat cells) EUB0000090b GAK. To be noted: at 1 µM. Format: cell-based.

In assay [2] the target is MAP kinase-interacting serine/threonine-protein kinase 1 (Homo sapiens) (UniProt Q9BUB5). The note with it: at 10 µM.
Chain of MAP kinase-interacting serine/threonine-protein kinase 1 (Homo sapiens) (Q9BUB5 whole entry, looked up): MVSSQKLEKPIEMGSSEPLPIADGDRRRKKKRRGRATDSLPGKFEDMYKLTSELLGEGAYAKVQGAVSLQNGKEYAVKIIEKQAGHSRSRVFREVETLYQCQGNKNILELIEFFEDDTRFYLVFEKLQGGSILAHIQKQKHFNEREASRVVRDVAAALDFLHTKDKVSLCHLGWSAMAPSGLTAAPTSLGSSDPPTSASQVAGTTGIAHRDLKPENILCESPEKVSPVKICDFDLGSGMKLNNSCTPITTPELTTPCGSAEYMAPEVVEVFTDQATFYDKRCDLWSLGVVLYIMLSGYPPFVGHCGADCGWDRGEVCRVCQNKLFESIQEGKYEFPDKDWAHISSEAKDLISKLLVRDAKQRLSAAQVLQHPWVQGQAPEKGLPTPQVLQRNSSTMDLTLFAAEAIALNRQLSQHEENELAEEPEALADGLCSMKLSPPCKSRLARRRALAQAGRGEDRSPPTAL
Assay [3] concerns the target T2, Histone-lysine N-methyltransferase SMYD3 (Homo sapiens) (UniProt Q9H7B4).
T2 sequence (whole entry): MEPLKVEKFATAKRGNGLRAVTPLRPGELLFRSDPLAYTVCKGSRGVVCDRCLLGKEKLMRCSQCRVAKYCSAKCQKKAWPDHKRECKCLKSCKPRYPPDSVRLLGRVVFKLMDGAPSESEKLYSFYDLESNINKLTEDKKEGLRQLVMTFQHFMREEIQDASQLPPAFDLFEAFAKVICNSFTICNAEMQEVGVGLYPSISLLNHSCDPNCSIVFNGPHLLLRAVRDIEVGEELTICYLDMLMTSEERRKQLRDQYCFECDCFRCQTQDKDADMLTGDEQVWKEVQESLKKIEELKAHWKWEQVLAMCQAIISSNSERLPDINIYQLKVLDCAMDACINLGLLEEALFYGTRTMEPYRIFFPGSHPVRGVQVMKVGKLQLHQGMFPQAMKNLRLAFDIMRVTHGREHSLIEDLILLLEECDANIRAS
The assay can be described thus: Selectivity interaction (Methyltransferase screen (Scintillation proximity assays)) EUB0000255b SMYD3. (Scintillation proximity formats need no separation of bound from free tracer.)

Assay [4] has as its target T3, Mitogen-activated protein kinase 12 (Homo sapiens) (UniProt P53778).
T3 sequence (whole entry): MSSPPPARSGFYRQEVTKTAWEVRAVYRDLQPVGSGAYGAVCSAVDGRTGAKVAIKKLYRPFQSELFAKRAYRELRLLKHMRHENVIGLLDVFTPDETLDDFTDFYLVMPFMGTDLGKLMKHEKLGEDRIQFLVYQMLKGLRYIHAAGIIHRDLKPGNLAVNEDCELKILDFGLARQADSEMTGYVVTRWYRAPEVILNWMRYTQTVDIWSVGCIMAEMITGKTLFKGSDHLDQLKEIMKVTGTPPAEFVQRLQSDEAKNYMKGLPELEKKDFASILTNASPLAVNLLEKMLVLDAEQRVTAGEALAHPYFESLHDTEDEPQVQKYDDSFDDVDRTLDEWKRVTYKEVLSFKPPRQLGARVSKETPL
Briefly: Selectivity interaction (KinomeScan (DiscoverX)) EUB0000655a MAPK12. To be noted: at 10 µM.

Assay [5] has as its target Casein kinase I isoform gamma-3 (Homo sapiens) (UniProt Q9Y6M4). The assay can be described thus: Selectivity interaction (Kinase panel (Z-LYTE Assay)) EUB0001632a CSNK1G3. To be noted: at 10 µM.
Assay [6] has as its target Tyrosine-protein kinase SYK (Homo sapiens, UniProt P43405). The assay can be described thus: Selectivity interaction (ActivX KiNativ screen (kinase selectivity in THP-1 cell lysates)) EUB0000639a SYK. Format: subcellular. The note with it: lysate, at 0.2 µM.
The target of assay [7] is SWI/SNF-related matrix-associated actin-dependent regulator of chromatin subfamily A member 4 (Homo sapiens) (UniProt P51532). The assay can be described thus: Selectivity interaction (Human bromodomain panel (DSF assay)) EUB0000233b SMARCA4. In general terms: In DSF a fluorescence change marks the thermal transition of the protein.
Chain of SWI/SNF-related matrix-associated actin-dependent regulator of chromatin subfamily A member 4 (Homo sapiens) (P51532 whole entry): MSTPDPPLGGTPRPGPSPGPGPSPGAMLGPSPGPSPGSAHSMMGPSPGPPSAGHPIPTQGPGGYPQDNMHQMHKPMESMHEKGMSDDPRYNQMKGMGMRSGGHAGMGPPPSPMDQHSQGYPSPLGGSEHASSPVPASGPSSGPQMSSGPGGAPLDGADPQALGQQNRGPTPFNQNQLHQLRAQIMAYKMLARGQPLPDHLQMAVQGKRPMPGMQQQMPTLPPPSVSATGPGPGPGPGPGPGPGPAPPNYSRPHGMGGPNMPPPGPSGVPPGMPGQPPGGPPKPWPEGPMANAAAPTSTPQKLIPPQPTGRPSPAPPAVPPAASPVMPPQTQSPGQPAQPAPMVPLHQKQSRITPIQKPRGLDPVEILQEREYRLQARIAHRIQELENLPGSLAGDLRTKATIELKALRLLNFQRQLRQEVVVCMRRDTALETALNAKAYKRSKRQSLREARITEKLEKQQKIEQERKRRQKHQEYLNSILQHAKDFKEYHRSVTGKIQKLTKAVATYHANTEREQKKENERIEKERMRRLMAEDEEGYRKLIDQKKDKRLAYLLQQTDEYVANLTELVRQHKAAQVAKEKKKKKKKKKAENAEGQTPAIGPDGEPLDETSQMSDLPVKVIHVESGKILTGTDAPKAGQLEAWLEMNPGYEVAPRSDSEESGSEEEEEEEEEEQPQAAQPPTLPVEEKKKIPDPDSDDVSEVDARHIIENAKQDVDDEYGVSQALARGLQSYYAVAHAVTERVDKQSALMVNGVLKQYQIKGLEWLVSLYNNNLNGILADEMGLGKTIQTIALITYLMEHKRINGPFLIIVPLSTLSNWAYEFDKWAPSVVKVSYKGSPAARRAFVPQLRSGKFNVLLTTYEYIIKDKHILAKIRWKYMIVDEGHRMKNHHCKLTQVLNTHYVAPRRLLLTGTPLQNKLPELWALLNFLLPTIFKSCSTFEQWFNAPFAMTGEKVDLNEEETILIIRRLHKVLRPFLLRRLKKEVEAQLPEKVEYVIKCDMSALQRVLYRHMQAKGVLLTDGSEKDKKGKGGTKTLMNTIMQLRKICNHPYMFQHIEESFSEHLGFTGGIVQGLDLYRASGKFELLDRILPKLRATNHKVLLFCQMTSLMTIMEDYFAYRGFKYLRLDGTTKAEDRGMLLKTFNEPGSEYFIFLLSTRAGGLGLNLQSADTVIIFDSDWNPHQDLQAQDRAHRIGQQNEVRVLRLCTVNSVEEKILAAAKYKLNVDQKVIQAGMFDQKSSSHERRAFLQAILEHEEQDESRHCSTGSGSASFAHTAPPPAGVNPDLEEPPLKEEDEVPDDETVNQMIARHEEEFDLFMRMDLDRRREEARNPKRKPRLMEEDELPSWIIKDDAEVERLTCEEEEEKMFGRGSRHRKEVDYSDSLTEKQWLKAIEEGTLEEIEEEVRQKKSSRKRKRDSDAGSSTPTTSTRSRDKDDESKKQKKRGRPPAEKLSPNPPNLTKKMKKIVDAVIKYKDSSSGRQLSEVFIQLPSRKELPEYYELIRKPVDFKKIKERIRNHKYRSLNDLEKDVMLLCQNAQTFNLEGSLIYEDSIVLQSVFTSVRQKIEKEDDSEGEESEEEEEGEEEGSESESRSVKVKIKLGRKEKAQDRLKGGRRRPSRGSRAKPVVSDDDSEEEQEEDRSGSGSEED
Assay [8] concerns the target T4, Serine/threonine-protein kinase 17A (Homo sapiens) (UniProt Q9UEE5).
T4 sequence (whole entry): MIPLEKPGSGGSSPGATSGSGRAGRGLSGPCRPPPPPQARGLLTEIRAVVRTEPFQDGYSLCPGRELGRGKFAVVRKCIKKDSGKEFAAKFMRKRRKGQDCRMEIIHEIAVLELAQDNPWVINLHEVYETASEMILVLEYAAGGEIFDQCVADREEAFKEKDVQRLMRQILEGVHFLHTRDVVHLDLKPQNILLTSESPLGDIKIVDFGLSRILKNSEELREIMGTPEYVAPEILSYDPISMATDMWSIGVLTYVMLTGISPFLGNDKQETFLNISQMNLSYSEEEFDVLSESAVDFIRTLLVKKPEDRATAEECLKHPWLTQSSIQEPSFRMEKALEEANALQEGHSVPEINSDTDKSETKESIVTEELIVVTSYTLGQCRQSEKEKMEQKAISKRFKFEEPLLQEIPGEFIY
Briefly: Selectivity interaction (Kinase panel (DSF assay)) EUB0001489b STK17A.

Bounds are passed on as bounds.

Chain of Casein kinase I isoform gamma-3 (Homo sapiens) (Q9Y6M4 whole entry, looked up, canonical isoform): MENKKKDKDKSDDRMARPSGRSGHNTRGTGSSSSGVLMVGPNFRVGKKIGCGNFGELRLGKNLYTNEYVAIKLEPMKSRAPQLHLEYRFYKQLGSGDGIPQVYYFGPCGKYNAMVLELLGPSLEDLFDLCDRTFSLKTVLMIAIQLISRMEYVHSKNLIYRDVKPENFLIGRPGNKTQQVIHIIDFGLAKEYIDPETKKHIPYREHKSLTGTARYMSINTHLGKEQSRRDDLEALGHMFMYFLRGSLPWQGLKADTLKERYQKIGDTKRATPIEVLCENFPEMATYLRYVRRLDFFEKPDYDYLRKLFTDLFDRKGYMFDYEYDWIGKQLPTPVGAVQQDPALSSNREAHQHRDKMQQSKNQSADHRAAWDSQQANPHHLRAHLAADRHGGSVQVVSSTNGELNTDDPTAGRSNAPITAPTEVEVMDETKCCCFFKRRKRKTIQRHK

With `CN(C)C/C=C/C(=O)Nc1ccc(C(=O)N2CCCC(Nc3ncc(Cl)c(-c4c[nH]c5ccccc45)n3)C2)cc1` (centres undefined), in assay [1], the % of control was 93%.

The compound `CCN(CC)CCCCNc1ncc2cc(-c3cc(OC)cc(OC)c3)c(NC(=O)NC(C)(C)C)nc2n1` yielded a % of control in assay [2] of 100%.

Regarding `COCCN1CCC(c2cc(CN(C)C(=O)c3cccc(Oc4ccccc4)c3)ccn2)CC1`, the % activity is over 95% in assay [3] (at 1 µM) and 83% in assay [3] (at 10 µM).

`CN(C)CCOc1ccc(-c2nc(-c3ccncc3)c(-c3ccc4c(c3)CC/C4=N\O)[nH]2)cc1` gave a % of control in assay [4] of 77%.

As for `Cn1cc(-n2cnc3c(NCc4nc5cc(Cl)c(Cl)cc5[nH]4)nc(N4CCOCC4)nc32)cn1`, the % of control in assay [5] was 6.17%.

Turning to `CC[C@@H]1[C@H](F)C(=O)N[C@@H]1COc1nccc2cc(C(N)=O)c(OC)cc12` [ZIMLOVISERTIB], the % of inhibition in assay [6] was 9.3%.

For the compound `CN(C)CCCOc1ccc(-c2cc(NCCCn3cccn3)nc(S(C)(=O)=O)n2)cc1`, the dTM in assay [7] is under 2 K.

`CN1CCN(C(=O)c2ccc3cc2OCCOCCNc2ccn4ncc-3c4n2)CC1` yielded a dTM in assay [8] of 1.5 K.

For the origin of these results see ChEMBL document CHEMBL5465560, “Selectivity Literature for EUbOPEN Chemogenomic Library” (2024).
